Where two headings read alike, the source gives them in different places. Non-standard residues stand in square brackets, D forms with d. No end group written: not given here.
Assays:
[1] = tested on: WEHI cells; assay: apoptosis of peptide-loaded WEHI cells by cytolytic T cell clones, with inhibitors; format: cell-based, mouse; conditions: p21-35 loaded WEHI cells and a cytolytic T cell clone
Experimental: For inhibition of GZ-B activity, Z-AAD-CMK (Calbiochem) or 3,4-dichloroiso-coumarin (DCIC) (SIGMA) were added at indicated concentrations during all the co-culture period.
Experiments were carried out with p21-35-loaded CD11c dendritic (FIG. 13b: left panel) or WEHI cells (FIG. 13b: right panel). Upon incubation with R3TB7 virtually all dendritic cells (DC) or Wehi cells were induced into apoptosis as measured by caspase 3 activation.
Apoptosis can be induced by either the Fas-FasL pathway or by secretion of cytotoxic granules containing granzymes. Attempts were made to inhibit each of these pathways. Addition of increasing concentrations of an antibody towards FasL, or of granzyme B inhibitors, to a cell culture containing p21-35 loaded WEHI cells and a cytolytic T cell clone, increased the number of surviving WEHI cells in a dose-dependent manner (FIG. 13c). In a number of experiments it was shown that the anti-FasL antibody restored up to 80% of WEHI cell survival.
To further ascertain that APC lysis required direct contact with cytolytic T cells through MHC class II presentation of p21-35, an experiment was carried out in which two identical populations of Wehi cells were loaded with either p21-35 or with an irrelevant peptide (p71-85). These two populations could be distinguished by differential CFSE labelling. It can be seen from FIG. 13e that, while WEHI cells presenting p21-35 were fully lysed, only 40% of p71-85-loaded cells were affected.

[2] = tested on: CD4+CD25(−) T cells; assay: bystander suppression of anti-CD3 activated CD4+CD25(−) T cells; format: cell-based, mouse; conditions: 72 h, 2 concentrations (2mM, 4 mM)
Experimental: Bystander suppression assays. Target CD4+CD25− T cells and T helper clones were labelled with 125nM CFSE (Molecular Probes) for 15 minutes in PBS at 37° C. The reaction was stopped by washing the cells with PBS containing 30% FBS. These cells (3×10^5) were cocultured with 10^5 cytotoxic CD4+ T cell clones and cell depleted splenocytes with 1 μg/ml anti-CD3 antibody (eBioscience), For suppression of T helper clones, 10^5 cells were co-cultured with the same number of cytotoxic cells and T cell depleted splenocytes. After 48 h or 72 hours, cells were collected and analysed by flow cytometry.
First, the capacity of Tregs was assayed to suppress the proliferation of CD4+CD25(−) T cells after anti-CD3 activation in the presence of antigen-presenting cells. […] This effect was even more pronounced at 72 h for the second T cell clone (lower middle panel). […] The control experiment in which Treg was replaced by an identical number of unlabeled CD4+CD25(−) T cells (right panels) eliminated a possible artefact related to variable numbers of total cells in the culture medium.
Next, the kinetics of suppression were analysed. In the experiments shown in FIG. 14b, it can be seen that 48 and 70% of CFSE-labelled CD4+CD25(−) T cells express Annexin V after 18 and 24 h co-incubation with a cytolytic Treg (R3TB7), respectively, using the same assay system as in FIG. 14a. […]

[3] = tested on: dendritic cells; format: cell-based
[4] = tested on: Patients; assay: patients with birch pollen and apple allergy treated with peptide; format: in vivo, human; conditions: 3 SC injections
From the text: Patients presenting with allergic symptoms upon exposure to birch pollen together with an oro-pharyngeal allergy to ingestion of apple and treated by 3 SC injections of peptide CGPC […] [SEQ ID.

[5] = tested on: polyclonal CD4+CD25− cells; assay: bystander suppression assay with CD4+CD25− cells from EAE animals; format: cell-based, mouse; conditions: 20 μg SC on aluminium hydroxide, three injections
Experimental: Groups of C57BL/6 mice are immunised subcutaneously (20 μg) with peptide (CHGS […] [SEQ ID. NO: 32], which contains the sequence motif C-X(2)-S) or control peptide ([…] [SEQ ID. NO: 33]) adsorbed onto aluminium hydroxide, Three injections are performed at 2-week intervals. Ten days after the last immunisation, mice are sacrificed and CD4+ T cells (2×10^6 cells) are prepared from the spleen using magnetic beads. CD4+ T cells are then stimulated in vitro by the MOG T cell epitope (20 μg/ml) presented by adherent spleen cells (2×10^6 cells).
After four re-stimulations, a T cell line is tested in a bystander suppression assay with, as target cells, polyclonal CD4+CD25− cells obtained from animals in which EAE (Experimental autoimmune encephalomyelitis) was effective.

[6] = tested on: C57BL/6 mice; assay: prevention of multiple sclerosis by peptide immunisation; format: in vivo, mouse; conditions: 5 injections 20 μg in IFA at 14 days interval before disease induction
Experimental: In the model group, 3 C57BL/6 mice received, at day 0, SC injection of 100 μg MOG peptide/400 μg Mycobacterium butyricum in CFA and ip injection of 300 ng Bortetella pertussis in NaCl. At day +2, a second injection of B. pertussis was given.
In the prevention group, 5 C57BL/6 mice are immunised by 5 injections with 20 μg CSMOG peptide (CHGS […] [SEQ ID. NO: 32]), which contains the sequence motif C-X(2)-S, in IFA at 14 days interval before disease induction as in the model group. Control experiments are performed with the peptide [SEQ ID. NO: 33] lacking the motif at its N-terminus.
Scores were established as 0: no disease, 1: limp tail, 2: limp tail and loss of weight higher than 10%, 3: partial paralysis of hind limbs.

[7] = tested on: CD4+ T cell; assay: CD4+ T cell proliferation elicited by single amino acid p21-35 mutants (IP immunisation in alum); conditions: mouse, in vivo
Experimental: Based on findings showing that regulation can be more readily achieved with analogues of T cell epitopes, the capacity of various single amino acid p21-35 mutants to elicit CD4+ T cell after IP immunisation in alum was determined. […] The mutated form of mp21-35 (mp21-35Asn) was therefore use in the remainder of the experiments in this Example.

[8] = tested on: MHC II cleft; assay: affinity for the MHC II cleft; format: binding
[9] = tested on: polyclonal CD4 cells; assay: apoptosis of polyclonal CD4 cells from peptide 524-543 immunised NOD mice; format: cell-based, mouse; conditions: APC loaded with peptide 524-543
From the text: NOD mice are immunised with peptide containing the thioredoxin consensus sequence in IFA (incomplete Freund adjuvans) from the age of 2 weeks. T cells are expanded in vitro to generate clones with regulatory properties.
The table in FIG. 23 represents the percentage of double positive cells (dead cells) after substraction of background values obtained without the regulatory population.

[10] = tested on: NOD mice; assay: spontaneous insulin-dependent diabetes in NOD mice, GAD65 derived peptide; format: in vivo, mouse
From the text: Non-obese diabetes (NOD) mice constitutes a suitable animal model for spontaneous insulin-dependent diabetes.
Adoptive transfer of Treg at the age of 2 weeks in NOD mice, namely before the onset of insulitis (3 weeks of age) is shown to fully prevent the onset of diabetes.
Direct immunisation of NOD mice with the peptide CRLC […] [SEQ ID.
Immunisation with peptide CRLC […] [SEQ ID.

[11] = tested on: BALB/c mice; conditions: mouse, in vivo
[12] = tested on: WEHI cells; assay: Wehi cell apoptosis by the G121 regulatory T cell clone with various forms of peptide; format: cell-based, mouse
[13] = tested on: spleen CD4+ T cells; conditions: mouse, in vivo, ip
[14] = tested on: G221N; assay: peptide processing assay with effector T cell clone G221N; format: cell-based, mouse

O=C(O)CN(CCOCCOCCN(CC(=O)O)CC(=O)O)CC(=O)O [EGTA]
restoration of WEHI cell survival [1]: only partial restoration of Wehi cell survival
inhibition of the suppression of bystander T cells [2]: Basically no inhibition

(CGPC)D-isomer LRAVESYLLAH ([dC]G[dP][dC]LRAVESYLLAH; cysteine pairing not given here) [SEQ ID. NO: 47]
apoptosis of dendritic cells by CD4+ T cells of treated subjects ([3]; dendritic cells loaded with the Mal d 1 antigen): resulted in dendritic cell apoptosis
apoptosis of dendritic cells by CD4+ T cells of treated subjects ([3]; dendritic cells presenting the Bet v 1 antigen, three SC injections of 50 μg on alum): induced apoptosis of dendritic cells presenting the Bet v 1 antigen
reaction to pollen exposure or apple contact [4]: failed to react to either exposure to pollen or contact with apple

CHGS YRSPFSRVVHLYR (CHGSYRSPFSRVVHLYR; reducing motif fused to MOG (Myelin Oligodendrocyte Glycoprotein) peptide) [SEQ ID. NO: 32]
capacity of T cell line from immunised animals to induce death in target cells [5]: have the capacity to induce death in target cells
development of the syndrome (clinical score) [6]: completely abolishes the development of the syndrome

IIe28Asn: IIe28Asn substitution of Der p 2 peptide p21-35 (CHGSEPCNIHRGKPF; UniProt P49278 38-52, looked up, fragment I28N)
capacity to induce T cell proliferation [7]: only slightly reduced
affinity for the MHC II cleft versus natural p21-35 [8]: lower affinity

CRLC KVAPVIKARMM (CRLCKVAPVIKARMM; modified fragment of glutamic acid decarboxylase (GAD65)) [SEQ ID. NO: 35]
apoptosis induced by polyclonal cells from immunised mice [9]: induce apoptosis in polyclonal CD4 cells
diabetes and insulitis, suppression by immunisation ([10]; after 15 weeks of age): suppress diabetes and insulitis
diabetes and insulitis, prevention by direct immunisation ([10]; from the age of 2 weeks): fully prevent diabetes and lesions of insulitis

QYIKANSKFIGITELGGCHGSEPCIIHRGKPF [mp21-35]
suppression of airway inflammation and hyperreactivity [11]: even more effective in suppressing airway inflammation and hyperreactivity
efficiency in inducing Wehi cell apoptosis in the presence of the G121 Treg, as compared to p21-35 [12]: 100 fold
Der p 2-induced proliferation of spleen CD4+ T cells [13]: significant reduction
requirement for internalisation, fusion with and acidification of late endosomes [14]: required internalisation into antigen-presenting cells
requirement for peptide processing [14]: had to be processed for efficient presentation

— patent publication US11718650B2, “Immunogenic peptides and their use in immune disorders” (IMCYSE SA, priority 2006, dated 2023)
